For one assay, the system named is G-CSF. The experiment in a line: Ribonuclease protection assay of whole liver RNA: G-CSF. It counts as in vivo, mouse. As to conditions: RPA, normalized to GAPDH, mean±SEM of 4 mice, HMCDE diet. As to the method: (§1) Total […] was isolated from frozen liver samples according to the method of Chomczynski and Sacchi as described in Gastroenterology 2002; 123: 1304-1310. KNA concentration was determined by optical density and quality was assessed by agarose gel electrophoresis and ethidium bromide staining. Commercial ribonuclease protection assay (RPA) kits with probes for murine cytokines (PharMingen, San Diego, Calif.) were used to evaluate factors that might be involved in the recruitment and expansion of HPC after liver injury. The factors studied were Stem Cell Factor (SCF), Hepatocyte Growth Factor (HGF), Interleukin-7 (IL-7), IL-11, Leukaemia Inhibitory Factor (LEF), Granulocyte-Macrophage Colony Stimulating Factor (GM-CSF), Granulocyte Colony, Stimulating Factor (G-CSF), Vascular Endothelial Growth Factor (VEGF), and its receptors, VEGFR1 and VEGFR3. Details of the RPA are described in J Pathol 2003; 199:191-200.
(§2) Total RNA was isolated from frozen liver samples as described in Mech Dev 120: 117-130, 2003. RNA concentration was determined by optical density and quality assessed by agarose gel electrophoresis and ethidium bromide staining. […]
(§3) In Table 1, Total liver RNA was obtained from 4 mice per treatment group and analyzed by RPA 20 μg RNA sample from each mouse was evaluated. Results are normalized to concurrently assessed expression of GAPDH in the same RNA samples. […]

A further assay concerns VEGFR1. As to the kind of experiment: Ribonuclease protection assay of whole liver RNA: VEGFR1. It counts as in vivo, mouse. As to conditions: RPA, normalized to GAPDH, mean±SEM of 4 mice, HMCDE diet. The procedure:
as §1, §2, §3

The test system of another assay is oval cells. As to the kind of experiment: Immunohistochemical count of hepatic oval cells (HPC) in HMCDE-fed mice. The format is in vivo, mouse. As to conditions: FIGS. 4A-4C, immunohistochemistry (and flow cytometry), P<0.001. As to the method:
Immunohistochemical analysis of HPC was performed with a mouse monoclonal OV6-type antibody (from Dr Stuart Sell, Albany Medical College, Albany, N.Y.) reacting with cytokeratins 14 and 19; a rabbit polyclonal antibody against 56 and 64 kD human callus cytokeratins (Dako, Denmark) and a rat monoclonal antibody to cytokeratin 19 as described Am J Pathol 2002; 161:521-530.
Details of the staining procedures are as described Am J Pathol 2002; 161:521-530. Briefly, 4 um thick paraffin sections were deparaffinized and rehydrated, followed by heating in a microwave oven for 10 minutes at 750 Watt in citrate buffer, pH 6.0. Incubation with the primary antibodies was performed at room temperature for 30 minutes. Mouse monoclonal OV6 antibody and rat anti-cytokeratin 19 were detected using the DAKO Animal Research Kit, peroxidase (Dako, Denmark). The rabbit polyclonal antibody against 56 and 64 kD human callus cytokeratins was detected by anti-rabbit Envision (Dako, Denmark) as described in J Pathol 2003; 199:191-200. […]
To evaluate the effect of treatments on the HPC compartment, coded samples were examined by an experienced liver pathologist blinded to treatment groups. For each liver section, the number of HPC in 5, randomly selected, non-overlapping, high power (×40 objective) fields was counted. […] Interlobular bile ducts were not considered progenitor cells and, thus, were not counted as such.
(A flow cytometer gives signals particle by particle.)

A further assay has as its system LIN^−ve/Thy-1^+ve cells. The experiment in a line: Flow cytometry of putative bone marrow-derived hepatic progenitors in liver of HMCDE-fed mice. The format is in vivo, mouse. As to conditions: FIG. 4C, P<0.03 (PRZ), <0.05 (6-OHDA). The text has this: The hepatic non-parenchymal cell fraction, which contains the oval cell population and the NK-T cell populations, were isolated as described in Hepatology 1998; 27:433-455 and Gastroenterology 2002; 123:[…]. Briefly, livers were carefully removed and homogenized in Stomacher80 (Seawood, England). The homogenate was then passed through a 100-μm wire mesh and liver cells were collected by centrifugation at 450 g. Mononuclear cells were purified from this fraction by centrifugation at 900 g over 35% Percoll gradients (Amersham Pharmacia Biotech) and incubated with normal mouse serum (Sigma, St Louis, Mo.) and Fc-receptor block (anti-CD16/CD32) to prevent nonspecific binding, plus APC-conjugated anti-mouse Thy-1.2 (the C57BL-6 form of the Thy-1 antibody) and antibodies directed against hematopoietic lineage markers (LIN, a mix of anti-mouse CD4, CD8, CD3, CD45, CD19, Mac-1, Gr-1, Ter119). For NK-T cell labelling, the mononuclear cells were incubated with […] anti-mouse NK-1.1 and PE-conjugated anti-mouse CD3. […] After incubation, pellets were washed to remove unbound antibodies, fixed with 2% formaldehyde and evaluated by FACS (Becton Dickenson). […] Data was analyzed by Cell Quest software (Becton Dickenson) to determine changes in these cell populations in different treatment groups.

Assay [1] has as its system bone marrow-derived hematopoietic progenitors. As to conditions: treatment of mice, shown hitherto; cited from earlier work.
A further assay relates to VEGFR3. As to the kind of experiment: Ribonuclease protection assay of whole liver RNA: VEGFR3. The format is in vivo, mouse. As to conditions: RPA, normalized to GAPDH, mean±SEM of 4 mice, HMCDE diet. As to the method: as §1, §2, §3
The test system of another assay is HGF. As to the kind of experiment: Ribonuclease protection assay of whole liver RNA: HGF. As to conditions: for effect on HMCDE-induced increase of hepatic HGF expression: versus HMCDE alone; for Gene Expression HGF: whole liver RNA, RPA, normalized to GAPDH, mean±SEM of 4 mice, HMCDE diet. It counts as in vivo, mouse. As to the method:
as §1
Total RNA was isolated from frozen liver samples as described in Mech Dev 120: 117-130, 2003. RNA concentration was determined by optical density and quality assessed by agarose gel electrophoresis and ethidium bromide staining. Ribonuclease protection assay (RPA) kits with probes for murine cytokines (PharMingen, San Diego, Calif.) were used to evaluate factors that might be involved in the recruitment and expansion of HPC after liver injury. The factors studied were Stem Cell Factor (SCF), Hepatocyte Growth Factor ([…]), Interleukin-6 (IL-6), IL7, IL-11, Leukaemia Inhibitory Factor (LIF), Granulocyte-Macrophage Colony Stimulating Factor (GM-CSF), Macrophage Colony Stimulating Factor (M-CSF), Granulocyte Colony Stimulating Factor (G-CSF), Vascular Endothelial Growth Factor (VEGF), and its receptors, VEGFR1 and YEGFR3.
In Table 1, Total liver RNA was obtained from 4 mice per treatment group and analyzed by RPA 20 μg RNA sample from each mouse was evaluated. Results are normalized to concurrently assessed expression of GAPDH in the same RNA samples. Data shown are the mean±SEM results of 4 mice per treatment group. Similar results were obtained in a second experiment.

Another assay relates to VEGF. As to the kind of experiment: Ribonuclease protection assay of whole liver RNA: VEGF. The format is in vivo, mouse. As to conditions: RPA, normalized to GAPDH, mean±SEM of 4 mice, HMCDE diet. As to the method: as §1, §2, §3

Take `NCCc1cc(O)c(O)cc1O` [6-OHDA, 6-hydroxydopamine]: the “Gene Expression G-CSF” value with G-CSF amounted to 1.4 ± 0.3. Besides, in the assay with VEGFR1, the “Gene Expression VEGFR1” value is 0.4 ± 0.1. Moreover, the “oval cell / HPC number versus HMCDE diet alone” value in the assay with oval cells was “significantly augments diet-induced HPC expansion”. In addition, the “LIN^−ve/Thy-1^+ve cells in liver versus HMCDE diet alone” value with LIN^−ve/Thy-1^+ve cells is listed as “more LIN^−ve/Thy-1^+ve cells”. Besides, the “mobilization of hematopoietic progenitors” value in assay [1] is “mobilize bone marrow-derived hematopoietic progenitors into the circulation”. Further, in the assay with VEGFR3, the “Gene Expression VEGFR3” value is reported as 2.1 ± 1.0. Further, in the assay on HGF, the “effect on HMCDE-induced increase of hepatic HGF expression” value was “did not augment this response” and the “Gene Expression HGF” value came out at 2.4 ± 0.75. Moreover, the “Gene Expression VEGF” value in the assay with VEGF stood at 2.3 ± 0.5.
On to `COc1cc2nc(N3CCN(C(=O)c4ccco4)CC3)nc(N)c2cc1OC` [PRZ, prazosin], for which the “Gene Expression G-CSF” value in the assay with G-CSF was 1.0 ± 0.3. Moreover, in the assay with VEGFR1, the “Gene Expression VEGFR1” value came out at 0.2 ± 0.2. Also, the “oval cell / HPC number versus HMCDE diet alone” value with oval cells is given as “significantly augments diet-induced HPC expansion”. Moreover, the “LIN^−ve/Thy-1^+ve cells in liver versus HMCDE diet alone” value in the assay with LIN^−ve/Thy-1^+ve cells is reported as “more LIN^−ve/Thy-1^+ve cells”. Further, the “mobilization of hematopoietic progenitors” value in assay [1] is “mobilize bone marrow-derived hematopoietic progenitors into the circulation”. In addition, the “Gene Expression VEGFR3” value with VEGFR3 is given as 1.7 ± 0.4. In the assay on HGF, the “effect on HMCDE-induced increase of hepatic HGF expression” value is given as “did not augment this response” and the “Gene Expression HGF” value came out at 2.1 ± 0.30. For the same compound, the “Gene Expression VEGF” value in the assay with VEGF was 1.4 ± 0.4.
